Test results reported in the supplement of paper PMC10307832.

Experiments:
Test in all cases: relative viability (nuclei count vs DMSO), 5 days (fraction); higher = more cells survive
[1] = system: NCI-H2023
Procedure, shortened: (§1)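 Five library-drug doses in √10 steps were combined with a fixed anchor-drug dose, or a single drug was given alone, by pin tool to lung cancer cell lines in 1536-well plates the day after seeding. Nuclei were stained and counted after 5 days. Relative viability is the nuclei count in treated wells over that in vehicle wells, taken as the median of duplicate plates.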

[2] = system: SW 1573
Procedure, shortened: as §1

[3] = system: LC-2-ad
Procedure, shortened: as §1

[4] = system: ABC-1
Procedure, shortened: as §1

[5] = system: NCI-H2347
Procedure, shortened: as §1

[6] = system: NCI-H522
Procedure, shortened: as §1

[7] = system: NCI-H647
Procedure, shortened: as §1

[8] = system: A-427
Procedure, shortened: as §1

[9] = system: UMC-11
Procedure, shortened: as §1

[10] = system: NCI-H1944
Procedure, shortened: as §1

[11] = system: NCI-H838
Procedure, shortened: as §1

[12] = system: NCI-H1793
Procedure, shortened: as §1

[13] = system: NCI-H1915
Procedure, shortened: as §1

[14] = system: NCI-H358
Procedure, shortened: as §1

[15] = system: NCI-H2342
Procedure, shortened: as §1

[16] = system: NCI-H441
Procedure, shortened: as §1

[17] = system: NCI-H2009
Procedure, shortened: as §1

[18] = system: NCI-H322M
Procedure, shortened: as §1

[19] = system: RERF-LC-KJ
Procedure, shortened: as §1

[20] = system: HCC-15
Procedure, shortened: as §1

[21] = system: EPLC-272H
Procedure, shortened: as §1

[22] = system: LK-2
Procedure, shortened: as §1

[23] = system: NCI-H1734
Procedure, shortened: as §1

In the case of `Cc1csc(=NC2CCCCC2)n1/N=C/c1ccc(O)c(O)c1O` [MIM1] + CCNC(=O)c1noc(-c2cc(C(C)C)c(O)cc2O)c1-c1ccc(CN2CCOCC2)cc1 [Luminespib] (partner 0.01 µM), the relative viability ([1]; first compound 0.2 µM) is reported as 0.791, the relative viability ([1]; first compound 0.6325 µM) is reported as 0.691 and the relative viability ([1]; first compound 2 µM) is reported as 0.646. The relative viability ([1]; first compound 6.325 µM) was 0.388, the relative viability ([1]; first compound 20 µM) was 0.07 and the relative viability ([2]; first compound 0.2 µM) was 0.22. It also gave a relative viability ([2]; first compound 0.6325 µM) of 0.318, a relative viability ([2]; first compound 2 µM) of 0.194 and a relative viability ([2]; first compound 6.325 µM) of 0.143. It also gave a relative viability ([2]; first compound 20 µM) of 0.069, a relative viability ([3]; first compound 0.2 µM) of 1.06 and a relative viability ([3]; first compound 0.6325 µM) of 0.964. The relative viability ([3]; first compound 2 µM) was 0.727, the relative viability ([3]; first compound 6.325 µM) was 0.485 and the relative viability ([3]; first compound 20 µM) was 0.233. The relative viability ([4]; first compound 0.2 µM) was 0.499, the relative viability ([4]; first compound 0.6325 µM) was 0.835 and the relative viability ([4]; first compound 2 µM) was 0.497. It also gave a relative viability ([4]; first compound 6.325 µM) of 0.399, a relative viability ([4]; first compound 20 µM) of 0.315 and a relative viability ([5]; first compound 0.2 µM) of 0.496. The relative viability ([5]; first compound 0.6325 µM) was 0.403, the relative viability ([5]; first compound 2 µM) was 0.236 and the relative viability ([5]; first compound 6.325 µM) was 0.346. It also gave a relative viability ([5]; first compound 20 µM) of 0.334, a relative viability ([6]; first compound 0.2 µM) of 1.23 and a relative viability ([6]; first compound 0.6325 µM) of 1.05. It also gave a relative viability ([6]; first compound 2 µM) of 1.03, a relative viability ([6]; first compound 6.325 µM) of 1.19 and a relative viability ([6]; first compound 20 µM) of 0.494. It also gave a relative viability ([7]; first compound 0.2 µM) of 0.147, a relative viability ([7]; first compound 0.6325 µM) of 0.271 and a relative viability ([7]; first compound 2 µM) of 0.18. The relative viability ([7]; first compound 6.325 µM) was 0.198, the relative viability ([7]; first compound 20 µM) was 0.0924 and the relative viability ([8]; first compound 0.2 µM) was 0.832. For the same compound, the relative viability ([8]; first compound 0.6325 µM) was 1.06, the relative viability ([8]; first compound 2 µM) was 0.955 and the relative viability ([8]; first compound 6.325 µM) was 0.747. It also gave a relative viability ([8]; first compound 20 µM) of 0.267, a relative viability ([9]; first compound 0.2 µM) of 1.03 and a relative viability ([9]; first compound 2 µM) of 1.23. It also gave a relative viability ([9]; first compound 6.325 µM) of 0.686, a relative viability ([9]; first compound 20 µM) of 0.369 and a relative viability ([10]; first compound 0.2 µM) of 0.632. The relative viability ([10]; first compound 0.6325 µM) was 0.823, the relative viability ([10]; first compound 2 µM) was 0.466 and the relative viability ([10]; first compound 6.325 µM) was 0.517. It also gave a relative viability ([10]; first compound 20 µM) of 0.568, a relative viability ([11]; first compound 0.2 µM) of 0.372 and a relative viability ([11]; first compound 0.6325 µM) of 0.317. The relative viability ([11]; first compound 2 µM) was 0.288, the relative viability ([11]; first compound 6.325 µM) was 0.267 and the relative viability ([11]; first compound 20 µM) was 0.16. For the same compound, the relative viability ([12]; first compound 0.2 µM) was 0.187, the relative viability ([12]; first compound 2 µM) was 0.188 and the relative viability ([12]; first compound 6.325 µM) was 0.162. It also gave a relative viability ([12]; first compound 20 µM) of 0.138, a relative viability ([13]; first compound 0.2 µM) of 0.743 and a relative viability ([13]; first compound 0.6325 µM) of 0.641. It also gave a relative viability ([13]; first compound 2 µM) of 0.685, a relative viability ([13]; first compound 6.325 µM) of 0.579 and a relative viability ([13]; first compound 20 µM) of 0.183. It also gave a relative viability ([14]; first compound 0.2 µM) of 0.472, a relative viability ([14]; first compound 0.6325 µM) of 0.292 and a relative viability ([14]; first compound 2 µM) of 0.303. The relative viability ([14]; first compound 6.325 µM) was 0.204, the relative viability ([14]; first compound 20 µM) was 0.211 and the relative viability ([15]; first compound 0.2 µM) was 0.739. The relative viability ([15]; first compound 0.6325 µM) was 0.723, the relative viability ([15]; first compound 2 µM) was 0.642 and the relative viability ([15]; first compound 6.325 µM) was 0.624. It also gave a relative viability ([15]; first compound 20 µM) of 0.985, a relative viability ([16]; first compound 0.2 µM) of 0.253 and a relative viability ([16]; first compound 2 µM) of 0.327. It also gave a relative viability ([16]; first compound 6.325 µM) of 0.354, a relative viability ([16]; first compound 20 µM) of 0.191 and a relative viability ([17]; first compound 0.2 µM) of 1. For the same compound, the relative viability ([17]; first compound 0.6325 µM) was 1.06, the relative viability ([17]; first compound 2 µM) was 1.03 and the relative viability ([17]; first compound 6.325 µM) was 0.877. For the same compound, the relative viability ([17]; first compound 20 µM) was 1.02, the relative viability ([18]; first compound 0.2 µM) was 0.837 and the relative viability ([18]; first compound 0.6325 µM) was 0.771. For the same compound, the relative viability ([18]; first compound 2 µM) was 0.832, the relative viability ([18]; first compound 6.325 µM) was 0.729 and the relative viability ([18]; first compound 20 µM) was 0.31. It also gave a relative viability ([19]; first compound 0.2 µM) of 1.21, a relative viability ([19]; first compound 0.6325 µM) of 1.26 and a relative viability ([19]; first compound 2 µM) of 0.73. For the same compound, the relative viability ([19]; first compound 6.325 µM) was 0.416, the relative viability ([19]; first compound 20 µM) was 0.284 and the relative viability ([20]; first compound 0.2 µM) was 0.244. The relative viability ([20]; first compound 0.6325 µM) was 0.353, the relative viability ([20]; first compound 2 µM) was 0.43 and the relative viability ([20]; first compound 6.325 µM) was 0.259. For the same compound, the relative viability ([20]; first compound 20 µM) was 0.133, the relative viability ([21]; first compound 0.2 µM) was 0.491 and the relative viability ([21]; first compound 0.6325 µM) was 0.266. For the same compound, the relative viability ([21]; first compound 2 µM) was 0.205, the relative viability ([21]; first compound 6.325 µM) was 0.143 and the relative viability ([21]; first compound 20 µM) was 0.122. The relative viability ([22]; first compound 0.2 µM) was 0.16, the relative viability ([22]; first compound 2 µM) was 0.169 and the relative viability ([22]; first compound 6.325 µM) was 0.195. It also gave a relative viability ([22]; first compound 20 µM) of 0.171, a relative viability ([23]; first compound 0.2 µM) of 0.0909 and a relative viability ([23]; first compound 0.6325 µM) of 0.233. It also gave a relative viability ([23]; first compound 2 µM) of 0.198, a relative viability ([23]; first compound 6.325 µM) of 0.168 and a relative viability ([23]; first compound 20 µM) of 0.157.
